Source: ChEMBL document CHEMBL2380306 (Bioorg Med Chem Lett, 2013)
≈ marks a conversion by molar mass, not a printed value.

Tests used:
physchem = conditions: buffer, pH 7.4
[1] = Aqueous kinetic solubility of the compound at pH 6.5; format: physicochemical; conditions: read-out: Kinetic_solubility
[2] = Apparent permeability across MDCK2 cells; format: ADME, cell-based, Canis lupus familiaris, MDCK-II; conditions: dog, MDCK
[3] = Oral bioavailability in Wistar-Han rat at 5 mg/kg; format: ADME, organism-based; conditions: in vivo
[4] = Oral bioavailability in Beagle dog at 4 mg/kg; format: ADME, organism-based, Canis lupus familiaris; conditions: in vivo
[5] = Volume of distribution at steady state in Beagle dog at 0.5 mg/kg, iv and 5 mg/kg, po; format: ADME, organism-based, Canis lupus familiaris; conditions: in vivo, read-out: Vdss
[6] = Apparent permeability across human Caco2 cells at pH 7.4; format: ADME, cell-based; conditions: Caco-2, pH 7.4
[7] = Oral bioavailability in Beagle dog at 5 mg/kg; format: ADME, organism-based, Canis lupus familiaris; conditions: in vivo
[8] = Volume of distribution at steady state in Wistar-Han rat at 1 mg/kg, iv and 50 mg/kg, po; format: ADME, organism-based; conditions: in vivo, read-out: Vdss
[9] = Oral bioavailability in Wistar-Han rat at 50 mg/kg; format: ADME, organism-based; conditions: in vivo
[10] = Apparent permeability across human Caco2 cells at pH 6.5; format: ADME, cell-based; conditions: Caco-2, pH 6.5
[11] = Drug excretion in Wistar-Han rat bile at 5 mg/kg, iv; format: ADME, organism-based; set-up: dose 5 mg/kg, route intravenous; conditions: read-out: Drug excretion

Row | Compound | logD (physchem) | Papp [2] [×10⁻⁶ cm/s] | other results
1 | CCCC(Oc1ccc(-n2cc(C#N)cn2)cc1)c1ccc(C(=O)NCCC(=O)O)cc1 (racemic) | 1.2 |  | 
2 | CCCC(Oc1ccc(-n2cc(C(F)(F)F)cn2)cc1)c1ccc(C(=O)NCCC(=O)O)cc1 (single isomer, unassigned) |  |  | bioavailability [3]: 60%
3 | CC(C)(C)C(Oc1ccc(-n2cc(C(F)(F)F)cn2)cc1)c1ccc(C(=O)NCCC(=O)O)cc1 (racemic) | 3.7 |  | 
4 | CCCC(Oc1ccc(-n2cc3ccccc3n2)cc1)c1ccc(C(=O)NCCC(=O)O)cc1 (racemic) | 2.5 |  | 
5 | CCCC(Oc1ccc(-n2cccn2)cc1)c1ccc(C(=O)NCCC(=O)O)cc1 (racemic) | 1.7 |  | 
6 | CCCC(Oc1ccc(-n2cc(Cl)cn2)cc1)c1ccc(C(=O)NCCC(=O)O)cc1 (racemic) | 2.6 |  | solubility kinetic [1]: 70 µM (≈ 30.9 µg/mL)
7 | CCC(Oc1ccc(-n2cc(C(F)(F)F)cn2)cc1)c1ccc(C(=O)NCCC(=O)O)cc1 (racemic) | 1.9 |  | 
8 | CCCC(Oc1cc(C)c(-n2cc(C(F)(F)F)cn2)c(C)c1)c1ccc(C(=O)NCCC(=O)O)cc1 (racemic) | 2.6 |  | 
9 | CC(C)CC(Oc1ccc(-n2cc(C(F)(F)F)cn2)cc1)c1ccc(C(=O)NCCC(=O)O)cc1 (racemic) | 3.2 |  | 
10 | CCCC(Oc1ccc(-n2cc3c(n2)CCCC3)cc1)c1ccc(C(=O)NCCC(=O)O)cc1 (racemic) | 2.7 |  | 
11 | CCCC(Oc1ccc(-n2cnc(C(F)(F)F)c2)cc1)c1ccc(C(=O)NCCC(=O)O)cc1 (racemic) |  | 2.3 | 
12 | CCC[C@H](c1ccc(C(=O)NCCC(=O)O)cc1)[C@H](c1ccc(Cl)cc1)c1c[nH]c2c(F)cc(C)cc12 [MK-3577] |  |  | solubility kinetic [1]: 23 µM (≈ 12 µg/mL); bioavailability [3]: 7%; bioavailability [4]: 30%
13 | CCCC(Oc1ccc(-n2cc(C)cn2)cc1)c1ccc(C(=O)NCCC(=O)O)cc1 (racemic) | 2.1 |  | 
14 | CCCC(Oc1ccc(-n2cc(OC)cn2)cc1)c1ccc(C(=O)NCCC(=O)O)cc1 (racemic) | 1.4 |  | 
15 | CCCC(Oc1ccc(-n2cc(F)cn2)cc1)c1ccc(C(=O)NCCC(=O)O)cc1 (racemic) | 2 |  | 
16 | CC(C)C(Oc1ccc(-n2cc(C(F)(F)F)cn2)cc1)c1ccc(C(=O)NCCC(=O)O)cc1 (racemic) | 2.6 |  | 
17 | CCCC(Nc1ccc(-n2cnc(C(F)(F)F)c2)cc1)c1ccc(C(=O)NCCC(=O)O)cc1 (single isomer, unassigned) |  |  | dose excreted [11]: 57%
18 | O=C(O)CCNC(=O)c1ccc(C(Oc2ccc(-n3cc(C(F)(F)F)cn3)cc2)C2CCC2)cc1 (racemic) | 2.6 |  | 
19 | CCCC(Oc1ccc(-n2cc(C(F)(F)F)c(C)n2)cc1)c1ccc(C(=O)NCCC(=O)O)cc1 (racemic) | 2.8 |  | 
20 | O=C(O)CCNC(=O)c1ccc(C(Oc2ccc(-n3cc(C(F)(F)F)cn3)cc2)C2CC2)cc1 (racemic) | 1.7 |  | 
21 | CCCC(Oc1ccc(-n2cc3ccccc3n2)cc1)c1ccc(C(=O)NCCC(=O)O)cc1 (single isomer, unassigned) |  | 2.2 | bioavailability [3]: 3%
22 | O=C(O)CCNC(=O)c1ccc(C(Oc2ccc(-n3cc(C(F)(F)F)cn3)cc2)C2CCCC2)cc1 (racemic) | 3.3 |  | 
23 | CCCC(Oc1ccc(-n2cc(C(=O)N(C)C)cn2)cc1)c1ccc(C(=O)NCCC(=O)O)cc1 (racemic) | 0.5 |  | 

More lines, main results first:

Row | logD (physchem) | Papp [2] [×10⁻⁶ cm/s] | Compound | other results
24 | 2.4 | 3.1 | CCCC(Oc1ccc(-n2cc(C(F)(F)F)cn2)cc1)c1ccc(C(=O)NCCC(=O)O)cc1 (racemic) | solubility kinetic [1]: 400 µM (≈ 190 µg/mL)
25 | 1.3 | 0.8 | CCCC(Nc1cnc(-n2cc(C(F)(F)F)cn2)nc1)c1ccc(C(=O)NCCC(=O)O)cc1 (racemic) | solubility kinetic [1]: 380 µM (≈ 181 µg/mL)
26 | 1.3 | 0.8 | CCCC(Nc1ccc(-n2cc(C(F)(F)F)cn2)cn1)c1ccc(C(=O)NCCC(=O)O)cc1 (racemic) | 
27 | 1.3 | 0.6 | CCCC(Nc1ccc(-n2cnc(C(F)(F)F)c2)cc1)c1ccc(C(=O)NCCC(=O)O)cc1 (racemic) | solubility kinetic [1]: 350 µM (≈ 166 µg/mL)
28 | 2.6 |  | CCCC(Oc1ccc(-n2cc(C(F)(F)F)cn2)c(C)c1)c1ccc(C(=O)NCCC(=O)O)cc1 (racemic) | 
29 | 1.5 |  | CCCC(Oc1cnc(-n2cc(C(F)(F)F)cn2)nc1)c1ccc(C(=O)NCCC(=O)O)cc1 (racemic) | 
30 | 2.5 | 3.6 | CCC[C@H](Oc1cc(C)c(-n2cc(C(F)(F)F)cn2)c(C)c1)c1ccc(C(=O)NCCC(=O)O)cc1 [PF-06291874] | Vd [5]: 0.31 L/kg; Papp [6]: 8.5 ×10⁻⁶ cm/s; bioavailability [7]: 100%; Vd [8]: 0.4 L/kg; bioavailability [9]: 100%; Papp [10]: 30 ×10⁻⁶ cm/s
31 | 2.7 |  | CCC[C@@H](Oc1cc(C)c(-n2cc(C(F)(F)F)cn2)c(C)c1)c1ccc(C(=O)NCCC(=O)O)cc1 | 
32 | 1.9 | 4 | CCCC(Nc1ccc(-n2cc(C(F)(F)F)cn2)cc1)c1ccc(C(=O)NCCC(=O)O)cc1 (racemic) | solubility kinetic [1]: 350 µM (≈ 166 µg/mL)
33 | 2.2 | 2.7 | CCCC(Nc1cc(C)c(-n2cc(C(F)(F)F)cn2)c(C)c1)c1ccc(C(=O)NCCC(=O)O)cc1 (racemic) | 
34 | 2.6 | 3.4 | CCCC(Oc1ccc(-n2cc(C(F)(F)F)cn2)nc1)c1ccc(C(=O)NCCC(=O)O)cc1 (racemic) | 
35 | 2.1 | 4.6 | CCCC(Nc1ccc(-n2cc(C(F)(F)F)cn2)nc1)c1ccc(C(=O)NCCC(=O)O)cc1 (racemic) | 
